In US12185720B2, “Chitooligosaccharides and methods for use in enhancing plant growth” (NOVOZYMES BIOAG A/S, priority 2011, dated 2025):
Entries after “also recorded” stand apart in the source; their conditions may differ.

Tests used:
Cotton plants = assay: Cotton foliar experiment (greenhouse); format: in vivo; details: sprayed at V4 stage with 10^−8 M; grown up to 4 weeks; FIG. 9
Excerpt: Cotton seeds were planted and grown to V4 stage (4 leaved stages) and then were sprayed with 10^−8 M of the LCO illustrated in FIG. 2b (also referred to in the examples as the “Pea LCO”) and the pea CO and then left to grow up to 4 weeks with occasional watering with Hoagland solution. Control plants were sprayed with water.

[1] = system: Siratro (Macroptelium atropurpureum) root segments; assay: Root hair deformation bioassay, Siratro; details: 4 hours in the dark, FIG. 14
Method: (§1) Siratro (Macroptelium atropurpureum) seeds were germinated on moist filter paper in petriplates. When seedlings roots are about 1-inches long, they are severed from the seedlings and treated with 2 ml of 10^−8M treatment solutions in test tubes for 4 hours in the dark. After treatment time is over the solutions are dyed with Congo Red for 10 minutes. After that root segments are observed under a compound microscope to count the number of deformed root hairs in the most sensitive zone of the root segment. Root hair deformation bioassay was also performed using Red Clover in a similar fashion like Siratro above and only visual observation was made and recorded in text form.

Red Clover root hairs = assay: Root hair deformation bioassay, Red Clover; details: compared to LCO
Method: as §1

wheat seeds = assay: Wheat seed germination in petriplates (Example 6); format: in vivo; details: 10^−9 M
Method: In petriplates on moist filter paper moistened with 10^−9 M treatment solution, canola and wheat seeds were plated for germination. At 18 h after plating, Pea CO induced more canola and wheat seed germination as compared to Pea LCO. Over the period of 21 to 24 hours, seed germination rate for LCO and CO leveled up.

[2] = system: wheat seeds (spring wheat); assay: Wheat seed germination and root length in petriplates (Example 8); format: in vivo; details: 5 days after plating; FIG. 20
Method: Corn and wheat seeds were plated in petriplates containing 5 ml of treatment solution on a filter paper. Corn seeds were placed on moist filter paper for germination. Similarly, wheat seeds (spring wheat) were placed in petriplates. […] Roots were harvested and their length measured by WinRhizo system.

[3] = system: Common vetch (Vicia sativa) seeds; assay: Common vetch seed germination and root length; format: in vivo; details: FIG. 21
Method: Common vetch seeds were plated in petriplates containing 5 ml of treatment solutions on filter paper. Seed germination at 22° C. was counted after 24 h and seedling root length was measured at day 5 with WinRhizo system.

[4] = system: Green Mung, Lab Lab, Red Lentil and Red Clover seeds; assay: Seed germination in multiple crops, overall; format: in vivo; details: four crops; dark, 22° C.; FIG. 23
Method: Similar to the seed germination experiment mentioned above, seeds of different crops were placed on moist filter paper in petriplates containing 5 ml liquid in each. Petriplates with seeds were then kept in the dark at 22° C.

Cotton seeds = assay: Cotton seed treatment (greenhouse); format: in vivo; details: seed treatment 10^−8 M, 3 fl oz/100 lbs of seed; 4 wks; FIG. 26
Method: Cotton seeds were treated with LCO and CO 10^−8 M treatment solutions at a dose rate of 3 fl oz/100 lbs of seed. Seeds were planted the very next day in plastic pots containing 1:1 sand:perlite mixture. Seeds were grown in greenhouse for 4 wks and then they were harvested.

Sorghum seeds = assay: Sorghum seed germination in petriplates; format: in vivo; details: CO 10^−8 M, LCO 10^−8 M alone or CO 10^−8 with LCO 10^−9; after 5 days; FIG. 29
Method: Sorghum seeds were germinated in petriplates containing liquid treatment solutions. Seedlings were harvested after 5 days and their roots were measured using WinRHIZO scanner.

soybean = assay: Soybean field trials, foliar application, grain yield; format: in vivo
corn = assay: Corn field trials, seed application, grain yield; format: in vivo

CC(=O)NC1C(O)OC(CO)C(OC2OC(CO)C(OC3OC(CO)C(OC4OC(CO)C(OC5OC(CO)C(O)C(O)C5N)C(O)C4NC(C)=O)C(O)C3NC(C)=O)C(O)C2NC(C)=O)C1O (centres unmarked) [Pea CO]
more plant fresh weight increase over LCO (Cotton plants): 1.14%
plant fresh weights over control (Cotton plants): significantly increased
root hair deformation ([1]; 10^−8M treatment solutions): induced root hair deformation
root hair deformation compared to LCO or CO ([1]; 10^−8M): equal to LCO
root hair deformation pattern (visual observation) (Red Clover root hairs): much better and prominent; also recorded: best root hair deformer
seed germination at 18 h as compared to Pea LCO (wheat seeds; FIG. 16): more
seed germination rate over 21 to 24 hours (wheat seeds; LCO versus CO): leveled up
increase in root length in wheat [2]: not statistically significant but consistently greater
wheat root length, CO compared to LCO [2]: outperformed LCO
early seed germination ([3]; 22° C., counted after 24 h): induced early seed germination
more germination over control and LCO ([3]; one day after plating): 25%
overall seed germination compared to Pea LCO [4]: better than Pea LCO
cotton plant dry weight (Cotton seeds): no significant differences; also recorded: relatively higher
total plant dry weight increase over control (Cotton seeds): 3.29%
sorghum seedling root length (Sorghum seeds): increased seedling root length
YIELD, Mean (N = 19) (soybean; soybean foliar at V4 to V5, 8×10^−8 molar, 12 μg/acre, with glyphosate): 58.2 bu/A
YIELD, Response Increase (soybean; soybean foliar, 12 μg/acre): 3 % of Control
YIELD, Response Increase (soybean; soybean foliar, 12 μg/acre, listed as CO (CO-V)): 3% of Control
YIELD, Response (soybean; soybean foliar, 12 μg/acre, over Control): 1.7 bu/A
CO mean yield less than foliar LCO (soybean; soybean foliar, CO minus LCO, less): 0.1 bu/A
yield enhancement as a foliar treatment (conclusion) (soybean; soybean foliar, CO versus LCO): substantially equal yield enhancements
Positive Yield Response (soybean; soybean foliar, percent of the 19 trials): 68.4%
YIELD, Response Increase (corn): 3.6 % of Control
YIELD, Mean (N = 10) (corn; 1×10^−8 molar, 1 μg/acre, 3 fl oz per 50 pounds of seed): 188.0 bu/A
less positive yield responses than LCO (corn; amongst the ten trials): 10.0%
CO mean yield less than LCO (corn; less): 4.6 bu/A
less yield increase above the Control than LCO (corn; less): 2.5%
YIELD, Response (corn; over Control): 6.5 bu/A
Positive Yield Response (corn; percent of the ten trials): 80.0%
